For experiment [1], the target named is T1, Alpha-2C adrenergic receptor (Homo sapiens, UniProt P18825).
T1 sequence (P18825 whole entry): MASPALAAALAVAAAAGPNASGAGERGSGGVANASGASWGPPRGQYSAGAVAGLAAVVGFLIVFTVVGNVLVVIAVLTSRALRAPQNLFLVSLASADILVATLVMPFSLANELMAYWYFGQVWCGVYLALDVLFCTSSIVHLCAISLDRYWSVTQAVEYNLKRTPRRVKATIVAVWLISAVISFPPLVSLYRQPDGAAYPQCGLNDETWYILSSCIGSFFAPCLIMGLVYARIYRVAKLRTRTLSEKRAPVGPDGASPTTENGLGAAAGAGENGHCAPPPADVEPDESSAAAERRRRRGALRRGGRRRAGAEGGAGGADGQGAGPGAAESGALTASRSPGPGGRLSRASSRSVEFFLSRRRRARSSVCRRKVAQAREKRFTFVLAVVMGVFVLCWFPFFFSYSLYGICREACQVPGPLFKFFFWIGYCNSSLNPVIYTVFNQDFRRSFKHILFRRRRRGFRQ
Description: Displacement of [3H]rawolscine from human cloned adrenergic Alpha-2C receptor transfected in CHO cells. Type of experiment: cell-based. In general terms: In a radioligand displacement assay an active substance lowers the binding of a labelled ligand.

The target in experiment [2] is Sodium-dependent serotonin transporter (Homo sapiens, UniProt P31645). As to the kind of experiment: Displacement of [3H]paroxetine from human cloned 5HTT receptor transfected in CHO cells. The experiment is classed as cell-based.
Experiment [3] deals with T2, Alpha-2A adrenergic receptor (Homo sapiens, UniProt P08913).
T2 sequence (P08913 whole entry): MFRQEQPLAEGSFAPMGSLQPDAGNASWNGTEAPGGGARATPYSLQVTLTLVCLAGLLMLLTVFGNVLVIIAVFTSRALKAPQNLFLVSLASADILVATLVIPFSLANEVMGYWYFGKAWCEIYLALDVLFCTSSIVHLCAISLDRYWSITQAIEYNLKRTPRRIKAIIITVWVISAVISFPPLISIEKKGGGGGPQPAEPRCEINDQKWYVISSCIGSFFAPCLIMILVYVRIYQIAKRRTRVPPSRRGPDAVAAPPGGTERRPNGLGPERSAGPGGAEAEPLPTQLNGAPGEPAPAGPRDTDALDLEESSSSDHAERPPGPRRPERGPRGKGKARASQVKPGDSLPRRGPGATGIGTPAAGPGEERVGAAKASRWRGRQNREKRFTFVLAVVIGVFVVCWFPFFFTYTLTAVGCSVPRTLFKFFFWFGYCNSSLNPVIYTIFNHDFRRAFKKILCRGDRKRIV
As to the kind of experiment: Displacement of [3H]rawolscine from human cloned adrenergic alpha2A receptor transfected in CHO cells. The experiment is classed as cell-based.

Experiment [4] addresses T3, Alpha-2B adrenergic receptor (Homo sapiens, UniProt P18089).
T3 sequence (P18089 whole entry): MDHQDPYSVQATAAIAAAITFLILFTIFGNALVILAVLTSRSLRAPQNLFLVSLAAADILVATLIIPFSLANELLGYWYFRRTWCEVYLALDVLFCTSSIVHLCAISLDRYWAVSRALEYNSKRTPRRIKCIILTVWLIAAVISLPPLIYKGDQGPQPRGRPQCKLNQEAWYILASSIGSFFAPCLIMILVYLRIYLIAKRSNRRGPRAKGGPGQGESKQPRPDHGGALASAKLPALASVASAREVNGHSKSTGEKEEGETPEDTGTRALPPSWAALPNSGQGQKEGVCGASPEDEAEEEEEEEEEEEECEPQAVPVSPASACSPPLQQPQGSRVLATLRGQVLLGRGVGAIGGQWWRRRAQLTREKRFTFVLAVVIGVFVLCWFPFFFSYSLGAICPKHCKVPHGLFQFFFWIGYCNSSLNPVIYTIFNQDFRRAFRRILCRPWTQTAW
Description: Displacement of [3H]rawolscine from human cloned adrenergic alpha-2B receptor transfected in CHO cells. The experiment is classed as cell-based.

Experiment [5] addresses Adrenergic receptor alpha-2 (Rattus norvegicus) (UniProt P22086+P19328+P22909). Description: Reversal of medetomidine-induced loss of righting reflex in sc dosed Wistar rat after 1hr. The experiment is classed as functional, organism-based.
For experiment [6], the target named is Sodium-dependent serotonin transporter (Rattus norvegicus) (UniProt P31652). Description: Antagonism of p-chloroamphetamine-induced excitation in sc dosed Wistar rat after 1 hr. Type of experiment: functional, organism-based.

These results are taken from ChEMBL document CHEMBL1143045, “Tricyclic isoxazolines: identification of R226161 as a potential new antidepressant that combines potent serotonin reuptake inhibition and alpha2-adrenoceptor antagonism” (Bioorg Med Chem, 2007).

What is called Ki is a measure of affinity in units of concentration, obtained from inhibition or displacement. The ED50 is the dose at which the effect has come halfway, by size or by number of responders.

Sequence of Sodium-dependent serotonin transporter (P31645 whole entry): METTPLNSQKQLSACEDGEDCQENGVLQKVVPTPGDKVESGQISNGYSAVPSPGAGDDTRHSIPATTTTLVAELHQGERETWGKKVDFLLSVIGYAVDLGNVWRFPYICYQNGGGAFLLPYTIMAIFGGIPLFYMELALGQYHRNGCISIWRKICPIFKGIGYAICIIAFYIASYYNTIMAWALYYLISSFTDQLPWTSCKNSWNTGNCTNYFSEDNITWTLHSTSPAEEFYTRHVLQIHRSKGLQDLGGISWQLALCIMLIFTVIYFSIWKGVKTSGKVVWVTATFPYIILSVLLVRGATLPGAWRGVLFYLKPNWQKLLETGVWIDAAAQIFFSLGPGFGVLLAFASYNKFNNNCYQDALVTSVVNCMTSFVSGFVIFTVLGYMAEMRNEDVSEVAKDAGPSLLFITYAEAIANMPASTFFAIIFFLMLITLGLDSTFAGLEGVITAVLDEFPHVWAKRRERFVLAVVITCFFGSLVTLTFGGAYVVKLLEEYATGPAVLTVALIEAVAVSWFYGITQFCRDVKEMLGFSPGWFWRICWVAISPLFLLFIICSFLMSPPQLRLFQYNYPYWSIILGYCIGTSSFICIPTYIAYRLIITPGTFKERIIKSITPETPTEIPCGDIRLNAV
Sequence of Sodium-dependent serotonin transporter (Rattus norvegicus) (P31652 whole entry): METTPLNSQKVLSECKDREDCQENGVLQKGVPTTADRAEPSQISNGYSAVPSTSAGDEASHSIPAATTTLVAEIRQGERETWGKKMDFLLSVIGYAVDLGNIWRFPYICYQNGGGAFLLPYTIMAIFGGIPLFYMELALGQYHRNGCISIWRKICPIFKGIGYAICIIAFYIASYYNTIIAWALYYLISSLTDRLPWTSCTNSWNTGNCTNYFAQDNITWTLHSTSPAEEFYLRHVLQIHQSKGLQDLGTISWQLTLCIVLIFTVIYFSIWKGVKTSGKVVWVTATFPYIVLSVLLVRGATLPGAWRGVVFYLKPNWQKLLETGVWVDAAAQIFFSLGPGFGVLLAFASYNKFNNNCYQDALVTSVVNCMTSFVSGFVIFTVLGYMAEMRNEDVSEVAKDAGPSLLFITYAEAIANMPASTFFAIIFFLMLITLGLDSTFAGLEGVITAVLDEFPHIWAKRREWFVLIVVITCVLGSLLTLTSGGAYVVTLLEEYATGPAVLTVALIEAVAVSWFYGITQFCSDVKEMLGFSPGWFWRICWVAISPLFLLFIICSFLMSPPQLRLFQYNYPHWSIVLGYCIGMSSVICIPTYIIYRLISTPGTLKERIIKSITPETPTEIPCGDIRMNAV

Consider `COc1cc2c(cc1OC)C1=NOC(CN3CCN(C/C=C/c4ccc(F)cc4)CC3)C1CO2` (cis isomer), for which the Ki is 72 nM in experiment [1], 14 nM in experiment [2], 117 nM in experiment [3] and 162 nM in experiment [4].

Take `COc1cc2c(cc1OC)C1=NOC(CN3CCN(C/C=C/c4ccc(F)cc4)CC3)C1CO2` (racemic) [listing 1 of 2 here]: the Ki in experiment [1] worked out at 23 nM; in experiment [2], 5.6 nM; in experiment [3], 9 nM; in experiment [4] it was 25 nM.

The compound `COc1cc2c(cc1OC)C1=NO[C@@H](CN3CCN(C/C(C)=C/c4ccc(F)cc4)CC3)[C@@H]1CO2` (racemic) [listing 1 of 2 here] had a Ki in experiment [4] of 8.4 nM.

In the case of `COc1cc2c(cc1OC)C1=NOC(CN3CCN(C/C(C)=C/c4ccccc4)CC3)C1CN2` (racemic) [listing 1 of 2 here], the Ki is 0.1 nM in experiment [1], 8.9 nM in experiment [2] and 12 nM in experiment [4].

As to `COc1cc2c(cc1OC)C1=NOC(CN3CCN(C/C(C)=C/c4ccccc4)CC3)C1CN2` (racemic) [listing 2 of 2 here], the ED50 in experiment [5] is 0.2 mg/kg; in experiment [6], 2.2 mg/kg.

On to `COc1cc2c(cc1OC)C1=NOC(CN3CCN(C/C=C/c4ccc(F)cc4)CC3)C1CO2` (racemic) [listing 2 of 2 here], for which the ED50 was determined as 0.1 mg/kg in experiment [5] and 4.7 mg/kg in experiment [6].

`COc1cc2c(cc1OC)C1=NO[C@@H](CN3CCN(C/C(C)=C/c4ccc(F)cc4)CC3)[C@@H]1CO2` (racemic) [listing 2 of 2 here]: in experiment [5], the ED50 came out at 0.1 mg/kg.

Turning to `COc1cc2c(cc1OC)C1=NOC(CN3CCN(C/C=C/c4ccc(F)cc4)CC3)C1CO2` (single isomer, unassigned; (+)), the Ki in experiment [1] amounted to 4.5 nM; in experiment [2] it was 2.1 nM; in experiment [3], 54 nM; in experiment [4], 14 nM.
